In one data set the test system is NTR1. The conditions noted are these: cited from earlier work.
Another data set has as its target NTR2 (Homo sapiens, UniProt O95665). The conditions noted are these: cited from earlier work.
The subject of another data set is PLCs containing PMCs. As to the kind of experiment: NT degradation by peritoneal lavage cells (PLCs) containing peritoneal mast cells. Type of data set: cell-based, mouse. Conditions: BAPTA-AM 50 mM pre-treatment; NT 10 μM, 30 min at 37° C. The method, then:
FIG. 5. Neurolysin and carboxypeptidase inhibitors prevent NT degradation by peritoneal mast cells. Kit^+/+ PLCs containing 5×10^4 PMCs were pre-treated for 15 min at 37° C. with one of the following protease inhibitors: chymostatin (chym, chymase inhibitor at 100 μM), CFp-Ala-Ala-Phe-pAB (CFp, […] at 10 μM only for PLCs), potato carboxypeptidase inhibitor (PCI, carboxypeptidase inhibitor at 10 μg/ml) and phosphodiepryl 03 (p03, neurolysin inhibitor at 100 nM for PLCs. Cells were then incubated with NT (10 μM) for 30 min at 37° C. Results are the percentage of NT remaining after incubation with cells compared to the starting concentration of NT (n=4-9 per group).
FIG. 12. (a), PLCs containing 1×10^4 PMCs obtained from either wild type C57BL/6 mice, Ntsr1-deficient (Ntsr1^−/−) mice or Ntsr2-deficient (Ntsr2^−/−) mice were incubated for 2 h with ^3H-5-hydroxytryptamine (3H-serotonin) at 37° C. and stimulated for 15 min at 37° C. with either ET-1 (4 μM) or NT (10 μM). (b), PLCs containing 1×10^4 PMCs obtained from C57BL/6 mice were incubated for 2 h with ^3H-serotonin and stimulated for 15 min with either ET-1 (4 μM) or NT (10 μM). In a separate set of experiments, cells were pre-incubated with BAPTA-AM (Sigma) ([…], 15 min at […]) before the addition of the stimuli. Results are mean ±SEM of 3 experiments. (c), mMC-CPA activity was measured in supernatants obtained from Kit^+/+ PLCs containing 5×10^4 PMCs that were stimulated for 30 min at 37° C. with either ET-1 (4 μM) or NT (10 μM). (d), PLCs containing 5×10^4 PMCs from C57BL/6J mice were pre-treated for 15 min at 37° C. with BAPTA-AM ([…], a Ca^2+ chelator that can reduce MC degranulation) and then incubated with NT (10 μM) for 30 min at 37° C. Results are expressed as the percentage of NT remaining after incubation with cells compared to that in samples of NT incubated in vehicle alone at 37° C. (data were pooled from triplicate determinations in two independent experiments that gave similar results). (e), Expression of mRNA for NT-receptors in the AtT20 neuroendocrine cell line, the mast cell line C1.MC/C57.1, C57BL/6J BMCMCs, Kit^+/+ BMCMCs and peritoneal mast cells purified from Kit^+/+ mice (PMCs).
NT, ET-1, C-reactive protein, and TNF measurements. Concentrations of NT, C-reactive protein, ET-1 and TNF were measured by ELISA (Bachem Peninsula Labs for NT; Biomedica, Vienna for C-reactive protein and ET-1; BD Biosciences for TNF). […] The detection limits for the ELISA kits were: 24 fmol/ml (NT), 0.048 fmol/ml (ET-1), 0.124 ng/ml (C-reactive protein) and […] (human TNF).

The next data set deals with PMCs. As to the kind of experiment: 3H-serotonin release from peritoneal mast cells. The conditions noted are these: BAPTA-AM, 30 min; ET-1 4 μM. The class given is cell-based, mouse.
Data set [1] concerns mMC-CPA. As to the kind of experiment: shRNA knock-down of mMC-CPA protein in BMCMCs (Western blot). Type of data set: cell-based, mouse. The conditions noted are these: Kit+/+ BMCMCs, lentiviral shRNA. The text has this: (§1) FIG. 9. Use of shRNA approach to knock-down NLN and mMC-CPA in BMCMCs. Protein expression for: (a), NLN and (b), mMC-CPA; and (c), mMC-CPA activity in Kit^+/+ BMCMCs treated with either empty vector or shRNAs. (d), mMCP-4 and mMCP-5 protein expression in Kit^+/+ BMCMCs treated with empty vector, NLN-shRNA or mMC-CPA-shRNA.
Lentiviral vector production. pLentiLox 3.7 (pLL3.7), a vector engineered to co-express enhanced green fluorescent protein (GFP) as a reporter gene, that permits infected cells to be tracked by flow cytometry, was digested with Xhol and Hpal and the annealed oligos (SEQ ID NO. 3) 5′-t-[…]-ttcaagaga-[…]-ttttttc-3′ and (SEQ ID NO. 4) 5′-tcgagaaaaaa-[…]-tctcttgaa-[…]-a-3′ for mMC-CPA and (SEQ ID NO. 5) 5′-t-[…]-ttcaagaga-[…]-ttttttc-3′ (SEQ ID NO. 6) 5′-tcgagaaaaaa-[…]-tctcttgaa-[…]-a-3′ for NLN were ligated into pLL3.7 to yield a directed shRNA-producing vector. The 19 nt target sequences are indicated in capitals in the oligonucleotide sequence. Active viral stocks were created and concentrated as previously described. Briefly, 293T cells were transfected with the transfer vector plasmid pLL3.7-mMC-CPA or pLL3.7-NLN or pLL3.7 (empty vector), the VSV-G envelope-encoding plasmid pMD.G, and the packaging plasmid CMVΔR8.74 using the calcium phosphate method. […]

Data set [2] relates to mMC-CPA. As to the kind of experiment: CPA enzymatic activity in shRNA-transduced BMCMCs. The class given is cell-based, mouse. The method, then: as §1
CPA enzymatic activity assay. CPA enzymatic activity was assessed by measuring reduction of absorbance of a chromogenic substrate (N-[4-Methoxyphenylazoformyl]-Phe-OH) (Bachem Peninsula Labs) specific for CPA as previously described.

Data set [3] concerns Kit+/+ BMCMCs. As to the kind of experiment: NT degradation by A23187-activated shRNA-transduced BMCMCs. The class given is cell-based, mouse. Conditions: A23187 5 μM; NT 10 μM, 30 min at 37° C. The method, then: FIG. 8. MC-associated neurolysin (NLN) contributes to the MCs' ability to reduce NT-induced hypotension. (a) Identification of NLN in the membrane and cytosol fractions of C1.MC/C57.1 MCs and C57BL/6J BMCMCs. (b) Degradation of NT (10 μM) by membrane and cytosol preparations obtained from Kit^+/+ BMCMCs (2×10^6 cells/preparation) that were pre-treated with either vehicle or with Pro-Ile (10 μM, 15 min at […]). Results are expressed as the percentage of NT remaining after incubation with membrane or cytosol preparations compared to that in samples of NT incubated in vehicle alone (n=3). […] Results are expressed as the percentage of NT remaining in the samples compared to that in samples of NT incubated in vehicle alone at 37° C. […] (e) Changes in MAP versus baseline levels (=“0”, measured 3 min after injection of 300 μl saline, i.p.) at various times after injection of NT (6 nmol in 300 μl saline, i.p.) in Kit^W/W-v mice which had been engrafted i.p. with Kit^+/+ BMCMCs treated with either empty vector (empty vector MCs→Kit^W/W-v), NLN-shRNA (NLN-shRNA MCs→Kit^W/W-v) or mMC-CPA-shRNA (mMC-CPA-shRNA MCs→Kit^W/W-v). […]
NT, ET-1, C-reactive protein, and TNF measurements. Concentrations of NT, C-reactive protein, ET-1 and TNF were measured by ELISA (Bachem Peninsula Labs for NT; Biomedica, Vienna for C-reactive protein and ET-1; BD Biosciences for TNF). […]

Data set [4] relates to Kit+/+ BMCMCs. As to the kind of experiment: Beta-hexosaminidase release of BMCMCs upon FcεRI cross-linking. Conditions: vs empty vector-treated cells. Type of data set: cell-based, mouse. The method, then: FIG. 10. BMCMCs treated with shRNAs degranulate after high affinity Fc receptor for IgE (FcεRI) cross-linking to the same extent than BMCMCs treated with empty vector. Beta-hexosaminidase release by Kit^+/+ BMCMCs treated with empty vector, NLN-shRNA for NLN or mMC-CPA-shRNA. Cells (1.25×10^5) were sensitized with IgE mAb to dinitro-phenol (DNP, 2 μg/ml) overnight at 37° C. and then were challenged with DNP-human serum albumin (DNP-HSA, 10 ng/ml) for 30 min at 37° C.
Beta-hexosaminidase release. Beta-hexosaminidase was measured on an enzyme-linked immunosorbent assay “reader” that detects the hydrolysis product of p-nitrophenyl-N-acetyl-b-D-glucosamine (Sigma) used as a substrate.

Chain of NTR2 (O95665 whole entry, species assumed): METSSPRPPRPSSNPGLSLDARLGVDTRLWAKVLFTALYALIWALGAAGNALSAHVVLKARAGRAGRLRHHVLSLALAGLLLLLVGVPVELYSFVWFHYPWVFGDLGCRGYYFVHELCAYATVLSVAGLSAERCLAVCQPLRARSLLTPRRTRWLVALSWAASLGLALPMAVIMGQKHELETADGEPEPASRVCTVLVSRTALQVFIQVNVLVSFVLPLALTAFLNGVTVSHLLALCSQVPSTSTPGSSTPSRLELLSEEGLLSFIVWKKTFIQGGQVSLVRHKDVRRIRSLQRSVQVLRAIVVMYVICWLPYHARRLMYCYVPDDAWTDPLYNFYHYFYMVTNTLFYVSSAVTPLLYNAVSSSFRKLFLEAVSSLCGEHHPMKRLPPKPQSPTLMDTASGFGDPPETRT

For `COc1cccc(OC)c1-c1cc(C(=O)NC2(C(=O)O)C3CC4CC(C3)CC2C4)nn1-c1ccc(C(=O)N(C)CCCN(C)C)cc1C(C)C` (stereo not drawn) [SR142948A], the “affinity for NTR1 relative to SR48692” value in the data set with NTR1 is on record as “higher affinity for NTR1 than SR48692”. Moreover, in the data set on NTR1 (different tissues and cells from various species), the “affinity for NTR1” value is listed as “nanomolar affinity”. In addition, the “affinity for NTR2” value on NTR2 is reported as “nanomolar affinity”.
`CC(=O)OCOC(=O)CN(CC(=O)OCOC(C)=O)c1ccccc1OCCOc1ccccc1N(CC(=O)OCOC(C)=O)CC(=O)OCOC(C)=O` [BAPTA-AM]: the “ability of PMCs to degrade NT” value in the data set with PLCs containing PMCs is recorded as “did not reduce the ability of PMCs to degrade NT”. The “ET-1-induced PMC serotonin release” value with PMCs was “markedly inhibited”.

B1: mMC-CPA-shRNA: lentivirus-delivered short hairpin RNA silencing mMC-CPA, SEQ ID NO. 3/4 (nucleic acid)
chain 1: TGAAACAGTTTGATGTGAAATTCAAGAGATTTCACATCAAACTGTTTCTTTTTTC
chain 2: TCGAGAAAAAAGAAACAGTTTGATGTGAAATCTCTTGAATTTCACATCAAACTGTTTCA
Regarding B1, in the data set on mMC-CPA [1], the “reduction in mMC-CPA protein expression level” value is reported as 90%. The mMC-CPA enzymatic activity result in the data set with mMC-CPA [2] was “substantially reduced”. Besides, the “ability to degrade NT after activation with A23187” value in the data set with Kit+/+ BMCMCs [3] is given as “significantly reduced ability to degrade NT”. In addition, the “degranulation upon FcεRI cross-linking” value in the data set on Kit+/+ BMCMCs [4] is given as “degranulated to the same extent”.
